Starred links: 1 amine or outer side, 2 acyl side, 3 side chain; linkers in the order of their positions; H or OH if unused. Positions of bridges follow the written chain, without caps; N, C: chain ends. Residues, ends and D or L forms follow the SMILES beside them. *: point of attachment. C20 diacid = O=C(O)CCCCCCCCCCCCCCCCCCC(=O)*; γGlu = O=C(O)[C@H](CCC(=O)[*:2])N[*:1]
Columns and labels:
[1] = Assay (I) efficacy testing on appetite (food intake), ad libitum fed rat model; format: in vivo, Sprague Dawley (SD) rats; details: 3 nmol/kg
Procedure, shortened: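 Ad libitum fed SD rats (200-250 g) on a reversed light cycle, housed individually, received a single 0.01-3 mg/kg dose ip, po or sc just before lights-off. Individual food intake recorded hourly for 7 h, then at 24 h and sometimes 48 h, versus vehicle; Grubbs outliers excluded.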

[2] = Assay (III) ThT fibrillation assay for physical stability; format: physicochemical; details: for Th T pH 4.0 lag time (h): 37° C., orbital shaking 960 rpm; for ThT pH 4.0 lag time: Table 9
Procedure, shortened: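 Freshly prepared samples, pH adjusted with NaOH and HClO4 or HCl, received ThT at 1 μM final and were incubated at 37° C with orbital shaking at 960 rpm. Fluorescence (ex 444 nm, em 485 nm) was read every 20 minutes; […], with polypeptide concentration by reverse HPLC before and after.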

Compound | Food intake reduction 0-24 h 3 nmol/kg (%) [1] | Food intake reduction 24-48 h 3 nmol/kg (%) [1] | Th T pH 4.0 lag time (h) [2] | ThT pH 4.0 lag time [2]
CC[C@H](C)[C@H](NC(=O)[C@@H]1CCCN1C(=O)CNC(=O)[C@H](Cc1ccccc1)NC(=O)[C@H](CC(N)=O)NC(=O)[C@H](CC(N)=O)NC(=O)[C@H](CO)NC(=O)[C@H](CO)NC(=O)[C@H](Cc1c[nH]cn1)NC(=O)[C@H](Cc1c[nH]cn1)NC(=O)[C@H](CC(C)C)NC(=O)[C@H](Cc1ccccc1)NC(=O)[C@H](CCC(=O)O)NC(=O)[C@H](C)NC(=O)[C@H](CC(C)C)NC(=O)[C@H](CCCNC(=N)N)NC(=O)[C@H](CCC(N)=O)NC(=O)[C@@H](NC(=O)[C@H](C)NC(=O)[C@@H]1CSSC[C@H](NC(=O)[C@H](CCCCN)NC(=O)CC[C@H](NC(=O)CCCCCCCCCCCCCCCCCCC(=O)O)C(=O)O)C(=O)N[C@@H](CC(N)=O)C(=O)N[C@@H]([C@@H](C)O)C(=O)N[C@@H](C)C(=O)N[C@@H]([C@@H](C)O)C(=O)N1)[C@@H](C)O)C(=O)N[C@@H](CC(C)C)C(=O)N1CCC[C@H]1C(=O)N1CCC[C@H]1C(=O)N[C@H](C(=O)N[C@@H](CC(N)=O)C(=O)N[C@H](C(=O)NCC(=O)N[C@@H](CO)C(=O)N[C@@H](CC(N)=O)C(=O)N[C@H](C(=O)N1CCC[C@H]1C(N)=O)[C@@H](C)O)C(C)C)[C@@H](C)O [Example 52, N-alpha-[(S)-4-Carboxy-4-(19-carboxynonadecanoylamino)butyryl]-[Glu14, His17, Pro37]-pramlintide] ({C20 diacid-γGlu}-KCNTATCATQRLAEFLHHSSNNFGPILPPTNVGSNTP-NH2; disulfide 2-7) | 62% | 74% | >45 h | >45 hr
CC[C@H](C)[C@H](NC(=O)[C@@H]1CCCN1C(=O)CNC(=O)[C@H](Cc1ccccc1)NC(=O)[C@H](CC(N)=O)NC(=O)[C@H](CC(N)=O)NC(=O)[C@H](CO)NC(=O)[C@H](CO)NC(=O)[C@H](Cc1c[nH]cn1)NC(=O)[C@H](CCCNC(=N)N)NC(=O)[C@H](CC(C)C)NC(=O)[C@H](Cc1ccccc1)NC(=O)[C@H](CCC(=O)O)NC(=O)[C@H](C)NC(=O)[C@H](CC(C)C)NC(=O)[C@H](CCCNC(=N)N)NC(=O)[C@H](CCC(N)=O)NC(=O)[C@@H](NC(=O)[C@H](C)NC(=O)[C@@H]1CSSC[C@H](NC(=O)[C@H](CCCCN)NC(=O)CC[C@H](NC(=O)CCCCCCCCCCCCCCCCCCC(=O)O)C(=O)O)C(=O)N[C@@H](CC(N)=O)C(=O)N[C@@H]([C@@H](C)O)C(=O)N[C@@H](C)C(=O)N[C@@H]([C@@H](C)O)C(=O)N1)[C@@H](C)O)C(=O)N[C@@H](CC(C)C)C(=O)N1CCC[C@H]1C(=O)N1CCC[C@H]1C(=O)N[C@H](C(=O)N[C@@H](CC(N)=O)C(=O)N[C@H](C(=O)NCC(=O)N[C@@H](CO)C(=O)N[C@@H](CC(N)=O)C(=O)N[C@H](C(=O)N1CCC[C@H]1C(N)=O)[C@@H](C)O)C(C)C)[C@@H](C)O [Example 53, N-alpha-[(S)-4-Carboxy-4-(19-carboxynonadecanoylamino)butyryl]-[Glu14, Arg17, Pro37]-pramlintide] | 40% | 28% | >45 h | >45 hr
CC[C@H](C)[C@H](NC(=O)[C@@H]1CCCN1C(=O)CNC(=O)[C@H](Cc1ccccc1)NC(=O)[C@H](CC(N)=O)NC(=O)[C@H](CC(N)=O)NC(=O)[C@H](CO)NC(=O)[C@H](CO)NC(=O)[C@H](Cc1c[nH]cn1)NC(=O)[C@H](CCCNC(=N)N)NC(=O)[C@H](CC(C)C)NC(=O)[C@H](Cc1ccccc1)NC(=O)[C@H](CCC(=O)O)NC(=O)[C@H](C)NC(=O)[C@H](CC(C)C)NC(=O)[C@H](CCCNC(=N)N)NC(=O)[C@H](CCC(N)=O)NC(=O)[C@@H](NC(=O)[C@H](C)NC(=O)[C@@H]1CSSC[C@H](NC(=O)[C@H](Cc2c[nH]cn2)NC(=O)CNC(=O)CC[C@H](NC(=O)CCCCCCCCCCCCCCCCCCC(=O)O)C(=O)O)C(=O)N[C@@H](CC(N)=O)C(=O)N[C@@H]([C@@H](C)O)C(=O)N[C@@H](C)C(=O)N[C@@H]([C@@H](C)O)C(=O)N1)[C@@H](C)O)C(=O)N[C@@H](CC(C)C)C(=O)N1CCC[C@H]1C(=O)N1CCC[C@H]1C(=O)N[C@H](C(=O)N[C@@H](CC(N)=O)C(=O)N[C@H](C(=O)NCC(=O)N[C@@H](CO)C(=O)N[C@@H](CC(N)=O)C(=O)N[C@H](C(=O)N1CCC[C@H]1C(N)=O)[C@@H](C)O)C(C)C)[C@@H](C)O [Example 89, N-alpha-[(S)-4-Carboxy-4-(19-carboxynonadecanoylamino)butyryl]-Gly-[His1, Glu14, Arg17, Pro37]-pramlintide] ({C20 diacid-γGlu}-GHCNTATCATQRLAEFLRHSSNNFGPILPPTNVGSNTP-NH2; disulfide 3-8) | 42% | 23% | >45 h | >45 hr
CC[C@H](C)[C@H](NC(=O)[C@@H]1CCCN1C(=O)CNC(=O)[C@H](Cc1ccccc1)NC(=O)[C@H](CC(N)=O)NC(=O)[C@H](CCC(N)=O)NC(=O)[C@H](CO)NC(=O)[C@H](CO)NC(=O)[C@H](Cc1c[nH]cn1)NC(=O)[C@H](CCCNC(=N)N)NC(=O)[C@H](CC(C)C)NC(=O)[C@H](Cc1ccccc1)NC(=O)[C@H](CCC(=O)O)NC(=O)[C@H](C)NC(=O)[C@H](CC(C)C)NC(=O)[C@H](CCCNC(=N)N)NC(=O)[C@H](CCC(N)=O)NC(=O)[C@@H](NC(=O)[C@H](C)NC(=O)[C@@H]1CSSC[C@H](NC(=O)[C@H](CCC(=O)O)NC(=O)[C@H](CCCNC(=N)N)NC(=O)[C@H](CCC(=O)O)NC(=O)CC[C@H](NC(=O)CCCCCCCCCCCCCCCCCCC(=O)O)C(=O)O)C(=O)N[C@@H](CC(N)=O)C(=O)N[C@@H]([C@@H](C)O)C(=O)N[C@@H](C)C(=O)N[C@@H]([C@@H](C)O)C(=O)N1)[C@@H](C)O)C(=O)N[C@@H](CC(C)C)C(=O)N1CCC[C@H]1C(=O)N1CCC[C@H]1C(=O)N[C@H](C(=O)N[C@@H](CCC(N)=O)C(=O)N[C@H](C(=O)NCC(=O)N[C@@H](CO)C(=O)N[C@@H](CCC(N)=O)C(=O)N[C@H](C(=O)N1CCC[C@H]1C(N)=O)[C@@H](C)O)C(C)C)[C@@H](C)O [Example 163, N-alpha-[(S)-4-Carboxy-4-(19-carboxynonadecanoylamino)butyryl]-Glu-Arg-[Glu1, Glu14, Arg17, Gln21, Gln31, Gln35, Pro37]-pramlintide] ({C20 diacid-γGlu}-ERECNTATCATQRLAEFLRHSSQNFGPILPPTQVGSQTP-NH2; disulfide 4-9) | – | – | >45 h | >45 hr
CC[C@H](C)[C@H](NC(=O)[C@@H]1CCCN1C(=O)CNC(=O)[C@H](Cc1ccccc1)NC(=O)[C@H](CCC(N)=O)NC(=O)[C@H](CCC(N)=O)NC(=O)[C@H](CO)NC(=O)[C@H](CO)NC(=O)[C@H](Cc1c[nH]cn1)NC(=O)[C@H](CCCNC(=N)N)NC(=O)[C@H](CC(C)C)NC(=O)[C@H](Cc1ccccc1)NC(=O)[C@H](CCC(=O)O)NC(=O)[C@H](C)NC(=O)[C@H](CC(C)C)NC(=O)[C@H](CCCNC(=N)N)NC(=O)[C@H](CCC(N)=O)NC(=O)[C@@H](NC(=O)[C@H](C)NC(=O)[C@@H]1CSSC[C@H](NC(=O)[C@H](CCC(=O)O)NC(=O)[C@H](CCCNC(=N)N)NC(=O)[C@H](CCC(=O)O)NC(=O)CC[C@H](NC(=O)CCCCCCCCCCCCCCCCCCC(=O)O)C(=O)O)C(=O)N[C@@H](CC(N)=O)C(=O)N[C@@H]([C@@H](C)O)C(=O)N[C@@H](C)C(=O)N[C@@H]([C@@H](C)O)C(=O)N1)[C@@H](C)O)C(=O)N[C@@H](CC(C)C)C(=O)N1CCC[C@H]1C(=O)N1CCC[C@H]1C(=O)N[C@H](C(=O)N[C@@H](CCC(N)=O)C(=O)N[C@H](C(=O)NCC(=O)N[C@@H](CO)C(=O)N[C@@H](CCC(N)=O)C(=O)N[C@H](C(=O)N1CCC[C@H]1C(N)=O)[C@@H](C)O)C(C)C)[C@@H](C)O [Example 164, N-alpha-[(S)-4-Carboxy-4-(19-carboxynonadecanoylamino)butyryl]-Glu-Arg-[Glu1, Glu14, Arg17, Gln21, Gln22, Gln31, Gln35, Pro37]-pramlintide] ({C20 diacid-γGlu}-ERECNTATCATQRLAEFLRHSSQQFGPILPPTQVGSQTP-NH2; disulfide 4-9 (inferred); C-terminus assumed) | – | – | >45 h | >45 hr
CC[C@H](C)[C@H](NC(=O)[C@@H]1CCCN1C(=O)CNC(=O)[C@H](Cc1ccccc1)NC(=O)[C@H](CO)NC(=O)[C@H](CO)NC(=O)[C@H](CO)NC(=O)[C@H](CO)NC(=O)[C@H](CCCNC(=N)N)NC(=O)[C@@H](NC(=O)[C@H](CC(C)C)NC(=O)[C@H](Cc1ccccc1)NC(=O)[C@H](CCC(=O)O)NC(=O)[C@H](C)NC(=O)[C@H](CC(C)C)NC(=O)[C@H](CCCNC(=N)N)NC(=O)[C@H](CCC(N)=O)NC(=O)[C@@H](NC(=O)[C@H](C)NC(=O)[C@@H]1CSSC[C@H](NC(=O)[C@H](CCCCN)NC(=O)CC[C@H](NC(=O)CCCCCCCCCCCCCCCCCCC(=O)O)C(=O)O)C(=O)N[C@@H](CC(N)=O)C(=O)N[C@@H]([C@@H](C)O)C(=O)N[C@@H](C)C(=O)N[C@@H]([C@@H](C)O)C(=O)N1)[C@@H](C)O)C(C)C)C(=O)N[C@@H](CC(C)C)C(=O)N[C@@H](CO)C(=O)N[C@@H](CO)C(=O)N[C@H](C(=O)N[C@@H](CC(=O)O)C(=O)N[C@H](C(=O)NCC(=O)N[C@@H](CO)C(=O)N[C@@H](CC(=O)O)C(=O)N[C@H](C(=O)N1CCC[C@H]1C(N)=O)[C@@H](C)O)C(C)C)[C@@H](C)O [Example 170, N-alpha-[(S)-4-Carboxy-4-(19-carboxynonadecanoylamino)butyryl]-[Glu14, Arg18, Ser21, Ser22, Ser28, Ser29, Asp31, Asp35, Pro37]-pramlintide] ({C20 diacid-γGlu}-KCNTATCATQRLAEFLVRSSSSFGPILSSTDVGSDTP-NH2; disulfide 2-7 (inferred); C-terminus assumed) | – | – | >45 h | >45 hr

— patent US9029325B2, “Amylin analogues and pharmaceutical compositions thereof” (Novo Nordisk A/S, priority 2011, dated 2015)
